In patent EP2608671B1, “COMPOUNDS FOR TREATMENT OF CANCER” (Gtx, Inc., priority 2010, dated 2012):
Read-outs that look alike come from different tables or passages of the source.

What was measured:
[1] = test system: B16-F1; experiment: SRB cell growth inhibition (cytotoxicity) assay; format: cell-based, mouse
From the text: (§1) The only compounds which belong to the invention are the ones falling under the scope of formula (XI).

[2] = test system: A375; experiment: SRB cell growth inhibition (cytotoxicity) assay; format: cell-based, human
[3] = test system: PC-3; experiment: cells
From the text: as §1
Cells were stained with SRB solution.
Cells. […] Cells between the third and fifth passages were used for experiments.
Cell growth inhibition studies. […] Cells were stained with sulphorhodamine B (SRB) solution.

[4] = test system: DU 145
[5] = test system: LNCaP
[6] = test system: PPC-1
[7] = test system: OVCAR-8; experiment: SRB growth inhibition, MDR model parent line; format: cell-based, human
[8] = test system: NCI/ADR-RES; experiment: SRB growth inhibition, P-gp over-expressing MDR line; format: cell-based, human; details: for Resistance factor: 5760 min
[9] = test system: Bovine brain tubulin; experiment: In vitro tubulin polymerization assay; format: biochemical; details: 10 µM; for tubulin polymerization inhibited: 20 min incubation, compared to vehicle
From the text: (§2) In Vitro Tubulin Polymerization Assay.
as §2
In vitro microtubule polymerization assay.

[10] = test system: DU 145; experiment: cells; details: Homo sapiens, DU-145, 96 h
[11] = test system: LNCaP; experiment: cells; details: Homo sapiens, 96 h, read-out: IC50 ± SEM (nM), LNCaP
[12] = test system: PPC-1; experiment: cells; details: Homo sapiens, PPC-1, 96 h, read-out: IC50 ± SEM (nM), PPC-1
[13] = test system: WM-164; experiment: SRB cell growth inhibition (cytotoxicity) assay; format: cell-based, human; details: WM164 melanoma cells, 48 h, SRB; read-out: IC50 ± SEM (nM) WM164
[14] = test system: melanoma cell lines (A375, WM-164, B16-F1) and prostate cancer cell lines (LNCaP, DU 145, PC-3, PPC-1); experiment: SRB cytotoxicity, melanoma and prostate cell panel (averages); format: cell-based
From the text: as §1

[15] = test system: A375 human melanoma xenograft; experiment: In vivo antitumor efficacy, A375 melanoma xenograft; set-up: species or system mouse; details: Melanoma (A375) xenograft; for % T/C: 34 days
Method: DTIC at 60 mg/kg was used as a positive control again.
(§3) PC-3 and A375 tumor xenograft studies.
(§4) In vivo antitumor activity [tumor growth inhibition (% T/C), tumor growth delay (T-C value), and tumor cell kill (total log cell kill)].

[16] = test system: PC-3 prostate tumor xenograft; experiment: In vivo antitumor efficacy, PC-3 xenograft; set-up: species or system mouse; details: Prostate (PC-3) xenograft, 21 days
From the text: as §3, §4

[17] = Table 6, read-out: IC50 ±SEM (nM), B16-F1
[18] = Table 6, read-out: IC50 ±SEM (nM), A375
[19] = read-out: IC50 ±SEM (nM), PC-3, Table 6
[20] = read-out: IC50 ±SEM (nM), DU 145, Table 6
[21] = read-out: IC50 ±SEM (nM), LNCaP, Table 6
[22] = read-out: IC50 ±SEM (nM), PPC-1, Table 6
[23] = Mus musculus, B16-F1, read-out: IC50 ± SEM (nM), B16-F1
[24] = Homo sapiens, A-375, 96 h, read-out: IC50 ± SEM (nM), A375
[25] = Homo sapiens, PC-3, 96 h, read-out: IC50 ± SEM (nM), PC-3
[26] = Homo sapiens, OVCAR-8, Table 5A, read-out: IC50 (nM), OVCAR-8
[27] = Homo sapiens, NCI/ADR-RES, P-gp over-expressed MDR cell line, Table 5A, read-out: IC50 (nM), NCI/ADR-RES
[28] = read-out: IC50 ± SEM (nM), DU 145
[29] = Table 21, Melanoma, n = 3, read-out: IC50 ± SEM (nM) B16-F1
[30] = Table 21, Melanoma, n = 3, read-out: IC50 ± SEM (nM) A375
[31] = read-out: IC50 ± SEM (nM) PC-3, Table 21, Prostate, n = 3
[32] = Table 21, Ovarian, n = 3, read-out: IC50 ± SEM (nM) OVCAR-8
[33] = read-out: IC50 ± SEM (nM) LNCaP, Table 21, Prostate, n = 3
[34] = read-out: IC50 ± SEM (nM) Dn-145, Table 21, Prostate, n = 3
[35] = read-out: IC50 ± SEM (nM) PPC-1, Table 21, Prostate, n = 3

COc1cc(C(=O)c2csc(-c3ccc(CC(N)=O)cc3)n2)cc(OC)c1OC [2q]
IC50 [1, 17]: > 20000 nM
IC50 [2, 18]: > 20000 nM
IC50 [3, 19]: > 10000 nM
IC50 [4, 20]: > 10000 nM
IC50 [5, 21]: > 10000 nM
IC50 [6, 22]: > 10000 nM

COc1cc(C(=O)c2csc(Nc3ccccc3)n2)cc(OC)c1OC [5a, (2-(Phenylamino)thiazol-4-yl)(3,4,5-trimethoxyphenyl)methanone]
IC50 [1, 23]: 65 ± 12 nM
IC50 [2, 24]: 45 ± 8 nM
IC50 [3, 25]: 57 ± 3 nM
IC50 [7, 26]: 46 ± 6 nM
IC50 [8, 27]: 27 nM
Resistance factor ([8]; NCI/ADR-RES vs OVCAR-8): 0.6
tubulin polymerization inhibited [9]: 78%
IC50 [10, 28]: 70 ± 4 nM
IC50 [11]: 51 ± 1 nM
IC50 [12]: 54 ± 1 nM

Cc1ccc(-c2nc(C(=O)c3ccc(F)cc3)c[nH]2)cc1 [12db, (4-fluorophenyl)(2-(p-tolyl)-1H-imidazol-4-yl)methanone]
IC50 ([2]; Homo sapiens, A-375, A375 melanoma cells, 48 h, SRB, read-out: IC50 ± SEM (nM) A375): 143 ± 13 nM
IC50 [3, 25]: 56 ± 3 nM
inhibition of tubulin polymerization ([9]; 15 min, Figure 22): ~80%
IC50 ([10]; read-out: IC50 ± SEM (nM) Du 145): 78 ± 5 nM
IC50 [11]: 45 ± 2 nM
IC50 [12]: 34 ± 1 nM

O=C(c1ccc(F)cc1)c1c[nH]c(-c2ccc(O)cc2)n1 [12kb]
IC50 ([1]; B16-F1 melanoma cells, 48 h, SRB, read-out: IC50 ± SEM (nM) B16-F1): > 10000 nM
IC50 [13]: > 10000 nM
IC50 ([3]; read-out: IC50 ± SEM (nM) PC-3, PC-3 prostate cancer cells, 96 h, SRB): > 10000 nM
IC50 ([14]; ABI compounds, Tables 11-13, read-out: IC50 (average over cell lines)): 33000 nM
IC50 ([4]; read-out: IC50 ± SEM (nM) Du 145, Du 145 prostate cancer cells, 96 h, SRB): > 10000 nM
IC50 ([5]; read-out: IC50 ± SEM (nM) LNCaP, LNCaP prostate cancer cells, 96 h, SRB): 10000 nM
IC50 ([6]; read-out: IC50 ± SEM (nM) PPC-1, PPC-1 prostate cancer cells, 96 h, SRB): > 10000 nM

COc1cc(C(=O)c2csc(-c3ccc4[nH]ccc4c3)n2)cc(OC)c1OC [66a]
IC50 [1, 23]: 25 ± 13 nM
IC50 [2, 24]: 8 ± 1 nM
IC50 [3, 25]: 7 nM
IC50 [7, 26]: 10 ± 3 nM
IC50 [8, 27]: 4 ± 2 nM
Resistance factor ([8]; NCI/ADR-RES vs OVCAR-8): 0.4
IC50 ([14]; Prostate cell, summary of Tables 2, 3, 21, read-out: IC50 range over tested melanoma and prostate cell lines): 7 to 25 nM
tubulin polymerization inhibited [9]: 81%
IC50 [10, 28]: 13 nM
IC50 [11]: 10 nM
IC50 [12]: 8 nM

COc1cc(C(=O)c2csc(-c3ccc(F)cc3)n2)cc(OC)c1OC [SMART-F]
IC50 [1, 29]: 43 ± 21 nM
IC50 [2, 30]: 33 ± 14 nM
IC50 [3, 31]: 13 ± 1 nM
IC50 [7, 32]: 34 ± 3 nM
Median time to reach 600 mm^3. ([15]; 15 mg/kg i.p.): 29 days
% T/C ([15]; 15 mg/kg i.p.): 28%
Total log cell kill ([15]; 15 mg/kg i.p., doubling time 4.6 d): 0.7
% T/C ([16]; 5 mg/kg i.p.): 21%
% T/C ([16]; 15 mg/kg i.p.): 24%
IC50 [5, 33]: 6 ± 1 nM

COc1cc(C(=O)c2csc(-c3ccccc3)n2)cc(OC)c1OC [SMART-H]
IC50 [1, 29]: 55 ± 5 nM
IC50 [2, 30]: 28 ± 5 nM
IC50 [3, 31]: 21 ± 1 nM
IC50 [7, 32]: 35 ± 2 nM
Median time to reach 600 mm^3. ([15]; 20 mg/kg i.p.): 28 days
% T/C ([15]; 20 mg/kg i.p.): 30%
% T/C ([16]; 5 mg/kg i.p.): 29%
% T/C ([16]; 15 mg/kg i.p.): 4%
IC50 [4, 34]: 71 ± 4 nM
IC50 [5, 33]: 28 ± 4 nM
IC50 [6, 35]: 43 ± 5 nM

COc1cc(C(=O)c2csc(-c3ccc(O)cc3)n2)cc(OC)c1OC [SMART-OH]
IC50 [1, 29]: 113 ± 6 nM
IC50 [2, 30]: 93 ± 11 nM
IC50 [3, 31]: 87 ± 5 nM
IC50 [7, 32]: 110 ± 8 nM
Resistance factor ([8]; NCI/ADR-RES relative to parent OVCAR-8): 0.4
IC50 ([8]; Table 21, Ovarian, n = 3, read-out: IC50 ± SEM (nM) NCI/ADR-RES): 45 ± 5 nM
% T/C ([16]; 50 mg/kg i.p.): 34%
IC50 [4, 34]: 116 ± 14 nM
IC50 [5, 33]: 103 ± 9 nM
IC50 [6, 35]: 76 ± 2 nM

COc1cc(C(=O)c2csc(-c3ccccc3)n2)cc(OC)c1OCCN1C(=O)c2ccccc2C1=O [compound 20]
IC50 [1, 17]: 42 nM
IC50 [2, 18]: 38 nM
IC50 [3, 19]: 73 nM
IC50 [4, 20]: 121 nM
IC50 [5, 21]: 65 nM
IC50 [6, 22]: 73 nM
